# Columns and labels:
# [1] = mortality rate by supposed ingested dose in colchicine overdose; type: in vivo, human
# Method: Although the dose ingested has an influence on the clinical picture, it is not, by itself, enough to allow prediction of the death of the patient. Indeed, the mortality rate in the three groups of supposed ingested dose equal to or less than 0.35 mg/kg, >0.35—equal or less than 0.7, and >0.7 were 0 (0%), 6/33 (18%), and 12/36 (33%) (Fisher's exact test: p<0.0001). The relation of mortality rate to the dose is statistically highly significant albeit being weak. Therefore, from a clinical viewpoint, other parameters reflecting the effects of the dose should be considered to define the likelihood of death in colchicine overdose.
# [2] = cited from earlier work
smiles,measurement,setting,value
"COc1cc2c(c(OC)c1OC)-c1ccc(OC)c(=O)cc1[C@@H](NC(C)=O)CC2 [colchicine, Colchicine]",mortality rate,"[1]; supposed ingested dose >0.7 mg/kg, 12/36",33%
same,mortality rate,"[1]; supposed ingested dose >0.35 to equal or less than 0.7 mg/kg, 6/33",18%
same,mortality rate,[1]; supposed ingested dose equal to or less than 0.35 mg/kg,0%
same,acute dose presumed to be fatal,[2],about 0.8 mg/kg
